{"source": "patent US6649193B1", "about": "“Prophylactic therapeutic and industrial antioxidant compositions enhanced with stabilized atomic hydrogen/free electrons and methods to prepare and use such compositions” (Henceforth Hibernia Inc., priority 1999, dated 2003)", "assay": "Standardized in-vitro tests of free radical / reactive species scavenging", "type": "biochemical", "conditions": "cage-like agent added to the solution before electrolysis", "source_text": "Electrochemical Method to Produce and Encage Atomic Hydrogen: Electrolysis is a very efficient method of producing atomic hydrogen free electrons. In the past, though, it was not possible to separate oxidizing products produced at the anode and reducing products produced at the cathode. Recently, Japanese scientists used a semipermeable membrane to separate the cathode and anode areas, while not perturbing the flow of electrons delivered to the media. Such devices are, for instance, described in Y. Shiramizu et al., J. Electrochem. Soc., Vol. 143, 1632 (1996), the content of which is incorporated by reference in its entirety. In short, such devices consist of a chamber (usually made of noncorrosive material such as plastic) which is divided in two compartments with a water-tight semipermeable Nafion membrane (Dupont corporation). In each compartment, there is an electrode connected to a DC current source. […] Several parameters can be measured to ensure the efficiency of electrolysis. […] The efficiency of reduction of vitamin B12 can be tested by measuring UV/VISIBLE spectra and recording the absorbance at 387 nm, which is proportional to the amount of reduced vitamin B12, see G. Chithambarathanu Pillai and E. S. Gould, Inorganic Chemistry, Vol. 25, 3353 (1986), the content of which is incorporated by reference in its entirety. […]", "data": [{"substance": "cyanocobalamin [vitamin B12]", "values": [{"measurement": "scavenging ability of the electrolyzed solution", "result": "enhanced in a dose-dependent fashion"}]}]}
